Source: the supplement of paper PMC4862054

How the values were obtained:
Experiment in all cases: drug sensitivity score (DSS), CellTox Green (DSS (AUC-based score)); higher = stronger drug effect (viability inhibition or cytotoxicity); extreme values may be limits of the assay
Conditions in all cases: incubation time: 72 h
[1] = system: MDA-MB-231
In short: (§1)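 The area under the fitted dose-response curve was used to calculate the drug sensitivity score. Cells from breast cancer lines were incubated for 72 h in 384-well plates with compound at 5 concentrations spaced 10-fold over a 10,000-fold range specific to each compound. Plates were read for CellTox Green and then CellTiter-Glo, and normalised to 0.1 % DMSO and a positive kill control.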

[2] = system: MFM-223
In short: as §1

[3] = system: MDA-MB-453
In short: as §1

[4] = system: HCC1599
In short: as §1

[5] = system: HCC1937
In short: as §1

[6] = system: CAL-120
In short: as §1

[7] = system: CAL-148
In short: as §1

[8] = system: BT-549
In short: as §1

[9] = system: CAL-51
In short: as §1

[10] = system: DU-4475
In short: as §1

[11] = system: CAL-85-1
In short: as §1

[12] = system: MDA-MB-468
In short: as §1

[13] = system: Hs578T
In short: as §1

[14] = system: MDA-MB-436
In short: as §1

[15] = system: BT-474
In short: as §1

[16] = system: HDQ-P1
In short: as §1

[17] = system: HCC1143
In short: as §1

[18] = system: MCF-10A
In short: as §1

| SMILES | drug sensitivity score [1] | drug sensitivity score [2] | drug sensitivity score [3] | drug sensitivity score [4] | drug sensitivity score [5] | drug sensitivity score [6] | drug sensitivity score [7] | drug sensitivity score [8] | drug sensitivity score [9] | drug sensitivity score [10] | drug sensitivity score [11] | drug sensitivity score [12] | drug sensitivity score [13] | drug sensitivity score [14] | drug sensitivity score [15] | drug sensitivity score [16] | drug sensitivity score [17] | drug sensitivity score [18] |
| --- | --- | --- | --- | --- | --- | --- | --- | --- | --- | --- | --- | --- | --- | --- | --- | --- | --- | --- |
| Nc1nc(Cl)nc2c1ncn2[C@@H]1O[C@H](CO)[C@@H](O)[C@@H]1F [Clofarabine] | 0 | 0 | 0 | 0 | 0 | 0 | 7.09 | 0 | 16.7 | 0 | 3.72 | 0.395 | 0 | 0 | 0 | 0 | 0 | 0 |
| COc1cc(Nc2ncc(F)c(Nc3ccc4c(n3)N(COP(=O)(O)O)C(=O)C(C)(C)O4)n2)cc(OC)c1OC [Fostamatinib] | 11.1 | 0 | 0 | 0 | 0 | 0 | 0 | 11.4 | 3.3 | 0 | 6.03 | – | 3.65 | 0 | 0 | 0 | 0 | 0 |
| CC(C)n1nc(-c2ccc3oc(N)nc3c2)c2c(N)ncnc21 [INK128] | 0 | 3.35 | 0 | 0 | 0 | 0 | 8.35 | 0 | 1.08 | 0 | 0 | 0 | 10.3 | 0 | 0 | 0 | 0 | 0 |
| CC(C)C(=O)Nc1ccc([N+](=O)[O-])c(C(F)(F)F)c1 [Flutamide] | 0 | 0 | 0 | 0 | 0 | 0 | – | 0 | 0 | 0 | 0 | 0 | 0 | 0 | 0 | 0 | 0 | 0 |
| NC(=O)c1cccc2cn(-c3ccc([C@@H]4CCCNC4)cc3)nc12 [MK-4827] | 0 | 0 | 0 | 0 | – | 0 | 0 | 0 | 3.35 | 0 | 2.02 | 0 | 0 | 0 | 0 | 0 | 0 | 0 |
| O=C(c1cc(Cc2n[nH]c(=O)c3ccccc23)ccc1F)N1CCN(C(=O)C2CC2)CC1 [Olaparib] | 1.54 | 0 | 0 | 0 | 0 | 0 | 0 | 0 | 3.38 | 0 | 0 | 0 | 0 | 8.45 | 0 | – | 0 | 0 |
| Cc1cc2c(F)c(Oc3ncnn4cc(OC[C@@H](C)O)c(C)c34)ccc2[nH]1 [Brivanib] | 0 | 0 | 0 | 0 | 0 | 0 | 0 | 0 | 0 | 0 | 0.499 | 0 | 0 | 2.68 | 0 | 0 | 0 | 0 |
| CC[C@H](CC#N)OC(=O)N[C@@H](C)c1cccc(NC(=O)Nc2ccc(-c3cnco3)c(OC)c2)c1 [AVN944] | 0 | 0 | 0 | 0 | 0 | 0 | 0 | 0 | 5.68 | 0 | 0 | 0 | 12.6 | 0 | 0 | 0 | 0 | 0 |
| CC(C)C[C@H](NC(=O)[C@H](CCc1ccccc1)NC(=O)CN1CCOCC1)C(=O)N[C@@H](Cc1ccccc1)C(=O)N[C@@H](CC(C)C)C(=O)[C@@]1(C)CO1 [Carfilzomib] | 24.1 | 14.4 | 0 | 0 | 18.4 | 17.2 | 19 | 8.43 | 24.4 | 0 | 24.8 | 37.2 | 16.7 | 19.2 | 8.3 | 19.1 | 0 | 9.99 |
| CO[C@H]1C[C@@H]2CC[C@@H](C)[C@@](O)(O2)C(=O)C(=O)N2CCCC[C@H]2C(=O)O[C@H]([C@H](C)C[C@@H]2CC[C@@H](O)[C@H](OC)C2)CC(=O)[C@H](C)/C=C(\C)[C@@H](O)[C@@H](OC)C(=O)[C@H](C)C[C@H](C)/C=C/C=C/C=C/1C [Sirolimus] | 0 | 0 | 0 | 0 | 1.4 | 0 | 0 | 0 | 0 | 0 | 0 | 0 | 0 | 0 | 0 | 0 | 0 | 0 |
